The values that follow come from PMC3366211, “Leishmanicidal Activity of Nine Novel Flavonoids from Delphinium staphisagria” (The Scientific World Journal, 2012).

Usually IC50 stands for the concentration needed to halve the response being measured.

Where two headings read alike, the source gives them in different places.

Assay [1] has as its system L. infantum promastigote forms. Description: Promastigote forms assay. The assay is classed as cell-based, Leishmania infantum. Conditions: for SI Promastigote forms: IC50 macrophages/IC50 parasite form; for IC50: 72 h; for times SI exceeds the reference drug SI (all forms): extracellular and intracellular forms; for times SI exceeds the reference drug SI (all forms) / number of times that compound SI exceeds the reference drug SI, Promastigote forms: reference Glucantime; for number of times that compound SI exceeds the reference drug SI, Promastigote forms: in brackets. The protocol: (§1) The compounds obtained were dissolved in the culture medium, at dosages of 100, 50, 25, 10, and 1 μM. The effects of each compound against promastigote forms were tested at 72 hours using a Neubauer haemocytometric chamber. The antileishmanial effect is expressed as the IC50, that is, the concentration required to give 50% inhibition, calculated by linear regression analysis from the Kc values of the concentrations employed.

The test system of assay [2] is L. braziliensis promastigote forms. Description: Promastigote forms assay. It counts as cell-based, Leishmania braziliensis. The note with it: for SI Promastigote forms: IC50 macrophages/IC50 parasite form; for IC50: 72 h; for number of times that compound SI exceeds the reference drug SI, Promastigote forms: in brackets, reference Glucantime. The method, then:
as §1

For assay [3], the system named is L. infantum axenic amastigote forms. In words: Axenic amastigote forms assay. The assay is classed as cell-based, Leishmania infantum. Conditions: for SI Axenic amastigote forms: IC50 macrophages/IC50 parasite form; for IC50: 48 hours per method (72 h); for number of times that compound SI exceeds the reference drug SI, Axenic amastigote forms: in brackets, reference Glucantime. The protocol: (§2) Axenic amastigotes forms of L. infantum and L. braziliensis were cultured following the methodology described previously by Moreno et al.. Thus, promastigote transformation to amastigotes was obtained after three days of culture in M199 medium (Invitrogen, Leiden, The Netherlands) supplemented with 10% heat-inactivated FCS, 1 g/L β-alanine, 100 mg/L L-asparagine, 200 mg/L sacarose, 50 mg/L sodium pyruvate, 320 mg/L malic acid, 40 mg/L fumaric acid, 70 mg/L succinic acid, 200 mg/L α-ketoglutaric acid, 300 mg/L citric acid, 1.1 g/L sodium bicarbonate, 5 g/L MES, 0.4 mg/L hemin, and 10 mg/L gentamicin pH 5.4 at 37°C. The effect of each compound against axenic amastigotes forms was tested at 48 hours using a Neubauer haemocytometric chamber. The antileishmanial effect is expressed as the IC50.

The subject of assay [4] is L. braziliensis axenic amastigote forms. Description: Axenic amastigote forms assay. The assay is classed as cell-based, Leishmania braziliensis. Conditions: for IC50: 48 hours per method (72 h); for SI Axenic amastigote forms: IC50 macrophages/IC50 parasite form. The method, then: as §2
The test system of assay [5] is L. infantum intracellular amastigote forms. In words: Intracellular amastigote forms assay in J774.2 macrophages. It counts as cell-based, Leishmania infantum. Conditions: for SI Intracellular amastigote forms / number of times that compound SI exceeds the reference drug SI, Intracellular amastigote forms: L. infantum; for SI Intracellular amastigote forms: IC50 macrophages/IC50 parasite form; for number of times that compound SI exceeds the reference drug SI, Intracellular amastigote forms: in brackets, reference Glucantime; for IC50: L. infantum in J774.2 macrophages, 72 h. The method, then:
(§3) Cells were seeded at a density of 1 × 10^4 cells/well in 24-well microplates (Nunc) with rounded coverslips on the bottom and cultured for 2 days. Afterwards the cells were infected in vitro with promastigote forms of L. infantum and L. braziliensis, at a ratio of 10 : 1 during 24 hours. The non-phagocytosed parasites were removed by washing, and then the drugs (at 1, 10, 25, 50, 100 μM) were added. Macrophages with the drugs were incubated for 72 hours at 37°C in 5% CO2.
(§4) Drug activity was determined on the basis of number of amastigotes in treated and untreated cultures in methanol-fixed and Giemsa-stained preparations. The number of amastigotes was determined by analyzing 200 host cells distributed in randomly chosen microscopic fields. The antileishmanial effect is expressed as the IC50 values are the means of three separate determinations.

For assay [6], the system named is L. braziliensis intracellular amastigote forms. The assay is described as above. The assay is classed as cell-based, Leishmania braziliensis. The note with it: for SI Intracellular amastigote forms / number of times that compound SI exceeds the reference drug SI, Intracellular amastigote forms: L. braziliensis; for SI Intracellular amastigote forms: IC50 macrophages/IC50 parasite form; for number of times that compound SI exceeds the reference drug SI, Intracellular amastigote forms: in brackets, reference Glucantime; for IC50: L. braziliensis in J774.2 macrophages, 72 h. The method, then:
as §3, §4

The subject of another assay is L. infantum. In words: Infection assay in J774.2 macrophages. It counts as cell-based, Leishmania infantum. Conditions: IC25 concentration; for infection rate decrease, percentage of inhibition capacity: with respect to control. The method, then:
(§5) J774.2 macrophage cells were grown under the same conditions expressed in amastigote forms assay during two days. Afterwards, the cells were infected in vitro with promastigote forms of L. infantum and L. braziliensis, at a ratio of 10 : 1. The drugs (IC25 concentrations) were added immediately after infection and were incubated for 12 hours at 37°C in 5% CO2. The nonphagocytosed parasites and the drugs were removed by washing, and then the infected cultures were grown for 10 days in fresh medium. Fresh culture medium was added every 48 h. The drug activity was determined from the percentage of infected cells and the number of amastigotes per infected cell (in treated and untreated cultures) in methanol-fixed and Giemsa-stained preparations. The percentage of infected cells and the mean number of amastigotes per infected cell were determined by analyzing 200 host cells distributed in randomly chosen microscopic fields. Values are the average of three separate determinations.

For a further assay, the system named is L. braziliensis. In words: Infection assay in J774.2 macrophages. It counts as cell-based, Leishmania braziliensis. Conditions: IC25 concentration; for infection rate decrease, percentage of inhibition capacity: with respect to control. The method, then: as §5
In assay [7] the test system is L. infantum promastigotes. In words: Metabolite excretion (1H-NMR). It counts as cell-based, Leishmania infantum. Conditions: IC25, 96 hours, vs control. The protocol:
Cultures of L. infantum and L. braziliensis promastigotes (initial concentration 5 × 10^5 cells/mL) received IC25 concentrations of the compounds (except for control cultures). After incubation for 96 hours at 28°C, the cells were centrifuged at 400 g for 10 min. Then supernatants were collected to determine the excreted metabolites using ^1H-NMR, and, eventually, chemical displacements were expressed in parts per million (ppm), using sodium 2,2-dimethyl-2-silapentane-5-sulphonate as the reference signal. The chemical displacements used to identify the respective metabolites were consistent with those described by Fernández-Becerra et al.

Assay [8] has as its system L. infantum promastigotes. In words: Ultrastructural alterations (TEM). The assay is classed as cell-based, Leishmania infantum. The note with it: IC25, 96 hours. The protocol:
(§6) The parasites were cultured at a density of 5 × 10^5 cells/mL in MTL medium, and the cultures contained drugs at the IC25 concentration.
(§7) After 96 hours, those cultures were centrifuged at 400 g for 10 min, and the pellets produced were washed in PBS and then mixed with 2% (v/v) P-formaldehyde-glutaraldehyde in 0.05 M cacodylate buffer (pH 7.4) for 4 hours at 4°C. After that, the pellets were prepared for TEM employing the technique of González et al..

Assay [9] deals with L. braziliensis promastigotes. Description: Ultrastructural alterations (TEM). It counts as cell-based, Leishmania braziliensis. Conditions: IC25, 96 hours. The method, then:
as §6, §7

For the next assay, the system named is J774.2 macrophages. Description: Cytotoxicity test for macrophages (flow cytometry). It counts as cell-based, BALB/c rat. The note with it: J774.2 macrophages after 72 h of culture, read-out: Macrophage toxicity IC50. The method, then:
J774.2 macrophages (ECACC number 91051511) were originally obtained from a tumour in a female BALB/c […] in 1968. The cytotoxicity test for macrophages was performed according to the methodology of González et al.. After 72 hours of treatment, cell viability was determined by flow cytometry. Thus, 100 μL/well of propidium iodide solution ([…]) was added and incubated for 10 min at 28°C in darkness. Afterwards, 100 μL/well of fluorescein diacetate (100 ng/mL) was added and incubated under the same conditions. Finally, the cells were recovered by centrifugation at 400 g for 10 min and the precipitate washed with phosphate buffered saline (PBS). Flow cytometric analysis was performed with a FACSVantage flow cytometer (Becton Dickinson). The percentage viability was calculated in comparison with the control culture. The IC50 was calculated using linear regression analysis from the Kc values of the concentrations employed.
(In general: Flow cytometry measures light scatter and fluorescence of single cells or particles in a stream.)

Take `CC(=O)O[C@H]1[C@H](Oc2c(-c3ccc(O)cc3)oc3cc(O[C@@H]4O[C@H](CO)[C@@H](O)[C@H](O)[C@H]4O)cc(O)c3c2=O)O[C@H](CO)[C@@H](O)[C@@H]1O` [Compound 5, 2′′-acetylpaeonoside]: the results for the “SI Promastigote forms” value in [1] and in assay [2] were 40.7 and 29.3, respectively. Also, the IC50 came out at 24.6 ± 3.7 µM in assay [1] (Leishmania infantum); 34.1 ± 6.6 µM in assay [2] (Leishmania braziliensis); 29.8 ± 2.2 µM in assay [3] (Leishmania infantum); 19.4 ± 0.9 µM in assay [4] (Leishmania braziliensis); 37.2 ± 3.5 µM in assay [5] (Leishmania infantum); 50.9 ± 6.2 µM in assay [6] (Leishmania braziliensis). Also, the “times SI exceeds the reference drug SI (all forms)” value in [1] is given as “more than 50 times”. The “number of times that compound SI exceeds the reference drug SI, Promastigote forms” value in assay [1] was 51; in assay [2], 49. Further, the “SI Axenic amastigote forms” value in [3] was determined as 33.6. In addition, the “number of times that compound SI exceeds the reference drug SI, Axenic amastigote forms” value in assay [3] is given as 56. Moreover, the “SI Intracellular amastigote forms” value in assay [5] is listed as 26.9; in assay [6], 20.0. Also, the “number of times that compound SI exceeds the reference drug SI, Intracellular amastigote forms” value in [5] is on record as 54; in assay [6], 40. Further, the entries for the “decrease of average number of amastigotes per infected macrophage cell” value with L. infantum and in the assay with L. braziliensis were 45% and 72%, respectively. In addition, the “infection rate decrease, percentage of inhibition capacity” value in the assay with L. infantum and in the assay with L. braziliensis was 79% throughout. Further, in [7], the “change in excreted catabolites” value is “an increase in the excretion of succinate, and acetate, followed by malate, alanine, lactate and ethanol”. The entries for the “ultrastructural alterations by TEM” value in [8] and in [9] were “produced similar effects” and “no significant changes compared to the control”, respectively.
Turning to `CC(=O)OC[C@H]1O[C@@H](Oc2c(-c3ccc(OC(C)=O)c(OC(C)=O)c3)oc3cc(O[C@@H]4O[C@@H](C)[C@H](OC(C)=O)[C@@H](OC(C)=O)[C@H]4OC(C)=O)cc(OC(C)=O)c3c2=O)[C@H](OC(C)=O)[C@@H](OC(C)=O)[C@@H]1OC(C)=O` [Compound 9, petiolaroside decacetate], the “SI Promastigote forms” value is recorded as 21.5 in [1] and 15.2 in [2]. The half-inhibitory concentration (IC50) was 22.8 ± 1.7 µM in [1] (Leishmania infantum); 32.3 ± 3.3 µM in assay [2] (Leishmania braziliensis); 21.5 ± 0.9 µM in assay [3] (Leishmania infantum); 24.6 ± 1.3 µM in [4] (Leishmania braziliensis); 31 ± 1.7 µM in assay [5] (Leishmania infantum); 21 ± 1.3 µM in assay [6] (Leishmania braziliensis). In addition, the 50% inhibitory concentration (IC50) in the assay on J774.2 macrophages (Mus musculus, J774.2, 72 h) came to 490 ± 22.4 µM. For the same compound, the “times SI exceeds the reference drug SI (all forms)” value in assay [1] is listed as below 50 times. In addition, the “number of times that compound SI exceeds the reference drug SI, Promastigote forms” value worked out at 27 in assay [1] and 25 in assay [2]. Moreover, the “SI Axenic amastigote forms” value in [3] came to 22.8; in assay [4], 19.9. Further, the “number of times that compound SI exceeds the reference drug SI, Axenic amastigote forms” value in assay [3] amounted to 38; in [4] (in brackets, reference Glucantime) it was 40. The “SI Intracellular amastigote forms” value is on record as 15.8 in assay [5] and 23.3 in assay [6]. The “number of times that compound SI exceeds the reference drug SI, Intracellular amastigote forms” value came to 32 in assay [5] and 47 in assay [6].
Consider “meglumine antimoniate [Glucantime, reference compound]”, for which the IC50 in assay [1] came to 18 ± 3.1 µM; in [2], 25.6 ± 1.6 µM; in assay [3] it was 24.2 ± 2.6 µM; in [4], 30.4 ± 6.1 µM; in [5], 30 ± 2.7 µM; in assay [6], 31.1 ± 3 µM. In the assay with J774.2 macrophages, the IC50 came to 15.2 ± 1.3 µM. The “SI Promastigote forms” value in assay [1] is on record as 0.8; in [2], 0.6. The “SI Axenic amastigote forms” value in assay [3] was 0.6; in assay [4], 0.5. The “SI Intracellular amastigote forms” value in assay [5] was determined as 0.5. Further, the “decrease of average number of amastigotes per infected macrophage cell” value in the assay with L. infantum is on record as 12%; in the assay with L. braziliensis, 33%. The “infection rate decrease, percentage of inhibition capacity” value was 63% in the assay with L. infantum and 58% in the assay on L. braziliensis.
